Reference: patent US20100273144A1, “NOVEL USE OF GRP 94 IN VIRUS INFECTION” (priority 2008, published 2010)

Experiments:
[1] = molecular target: T1, IKKα/β (Homo sapiens, UniProt O14920+O15111); experiment: Effect of BAY11-7082 on expression of NF-κB-related survival genes, Western-blot, control and GRP94-overexpressing cells; type: cell-based; parameters: dose or concentration left out as unconfirmed
T1 construct: were monitored using GRP94-overexpressing and control cell lines; endogenous in cells; host or cells: Huh-7 cells stably carrying pCDNA3.1 (control) or pCDNA3.1-GRP94
Protocol: Western-blot analysis—Proteins were resolved by 8% or 13.5% SDS-PAGE and transferred to nitrocellulose membranes (Amersham). The membranes were blocked overnight with 5% skimmed milk in Tris-buffered saline (TBS) [20 mM Tris-HCl (pH 7.5), 150 mM NaCl, 0.5% Tween-20] and then incubated with monoclonal antibodies against actin (1:5000), GRP94 (1:1000), Hsp90 (1:1000), TRAF2 (1:500), XIAP (1:1000), survivin (1:500), glyceraldehyde-3-phosphate dehydrogenase (GAPDH) (1:5000) and IKKα/β for 5 hours. A monoclonal anti-human actin antibody was used as a control. […]
The inventors tried to determine the stage of the signaling cascade at which NF-κB is activated by GRP94. […] The effects of BAY11-7082, a specific inhibitor of IKKα/β, on the expression of NF-κB-related gene products were monitored using GRP94-overexpressing and control cell lines, and the obtained results are shown in FIG. 4B. […] Effect of abrogation of IKKα/β activity by BAY11-7082 on the expression of NF-κB-related survival genes was monitored by Western-blot analysis; lanes 2 and 4 show results with and lanes 1 and 3 show results without treatment of the drug […] for 4 hrs on control (lanes 1 and 2) and GRP94-overexpressing (lanes 3 and 4) cells.

[2] = tested on: IκBα; experiment: Time-course analysis of IκBα levels after TNF-α treatment, Western-blot, Huh-7 cells with or without HCV replicons; type: cell-based; conditions: TNF-α 10 ng/ml
Protocol: Western-blot analysis—Proteins were resolved by 8% or 13.5% SDS-PAGE and transferred to nitrocellulose membranes (Amersham). The membranes were blocked overnight with 5% skimmed milk in Tris-buffered saline (TBS) [20 mM Tris-HCl (pH 7.5), 150 mM NaCl, 0.5% Tween-20] and then incubated with monoclonal antibodies against actin (1:5000), GRP94 (1:1000), Hsp90 (1:1000), TRAF2 (1:500), XIAP (1:1000), survivin (1:500), glyceraldehyde-3-phosphate dehydrogenase (GAPDH) (1:5000) and IKKα/β for 5 hours. A monoclonal anti-human actin antibody was used as a control. Horseradish-peroxidase-conjugated anti-mouse, anti-goat or anti-rabbit immunoglobulin Gs (IgGs) were used as secondary antibodies (1:5000), and bands were visualized by enhanced chemiluminescence (ECL) according to the manufacturer's instructions (Amersham).
The protein level of IκBα in control Huh-7 cells, Huh-7 cells containing replicons FK-E1 (UAA), and FK-E2(UAA) were measured by Western-blot assays with time; this is because the phosphorylation-dependent degradation of IκBs is an essential step for NF-κB activation after TNF-α treatment. […] Within 5 minutes of TNF-α treatment, IκBα proteins were not detected in the control Huh-7 cells (FIG. 1C). In Huh-7 cells containing the replicon FK-E1(UAA) that expresses NS3-5B, core and E1 proteins, the degradation of IκBα was delayed by up to 10 minutes after treatment with TNF-α (FIG. 1C).

[3] = tested on: NF-κB; experiment: NF-κB reporter assay (firefly luciferase under NF-κB response element) in 293T cells; type: cell-based; conditions: 10 ng TNF-α for 12 hours, vs mock-treated
Protocol: (§1) Luciferase assay—Luciferase assays were performed using a luciferase assay kit (Promega), according to the manufacturer's instructions. The luciferase activities in the cells were normalized by the protein concentrations, as determined by the Bradford assay.
The activation of NF-κB by overproduction of GRP94 was investigated by measuring the activity of a reporter gene (firefly luciferase) under the control of the […] response element (FIG. 4A). […] 293T cells were transfected with pNF-κB-Luc, which encodes the firefly luciferase gene under the control of a NF-κB response element, with control vector plasmid (pCDNA3.1) (lane 3) or with the plasmid pCDNA3.1-GRP94, which produces. GRP94 (lane 4). Control plasmid pRLCMV-Luc (Promega) was also cotransfected to normalize transfection efficiency. After incubation of the cells for 48 hours, cells were further incubated in serum-free medium for 6 hours, mock-treated (lane 1), or treated with 10 ng TNF-α for 12 hours (lane 2), before luciferase activities were measured. Three independent experiments were performed and the relative values (TNF-α-treated vs mock-treated, and GRP94-overexpressed vs mock-expressed) are shown.

[4] = tested on: control, GRP94-overexpressing and E2-expressing cells; experiment: TRAIL-induced apoptosis monitored by cleavage of PARP (Western-blot) in control, GRP94-overexpressing and E2-expressing cells; type: cell-based; conditions: 200 ng/ml TRAIL for 2 hours
From the text: The role of GRP94 in inhibition of apoptosis during HCV infection was investigated using a siRNA against GRP94 and a control siRNA, the GRP94-overexpressing, and the E2-expressing cell lines (FIG. 5). The strong apoptosis inducer TRAIL was used to mimic the physiological conditions of a virus infection that induces TRAIL expression. Cleavage of PARP, which is a substrate of activated caspase-3/7, was used to monitor the process of apoptosis. The obtained results were shown in FIG. 5, wherein control (lanes 1-4), GRP94-overexpressing (lanes 5-8), and E2-expressing (lanes 9-12) cells were mock-treated (lanes 1, 3, 5, 7, 9 and 11) or treated with 200 ng/ml TRAIL (lanes 2, 4, 6, 8, 10 and 12) for 2 hours after treatment with a control siRNA (lanes 3, 4, 7, 8, 11 and 12) or a siRNA against GRP94 (lanes 1, 2, 5, 6, 9 and 10). The levels of uncleaved PARP, GRP94, HCV E2 and actin were monitored by Western-blot analysis.

[5] = tested on: HCV-infected Huh-7 cells; experiment: TRAIL-induced PARP cleavage in mock-infected and HCV (JFH 5a-Rluc)-infected Huh-7 cells; type: cell-based; conditions: TRAIL for 18 hours
Protocol: Huh-7 cells were transfected with a control siRNA (lanes 1, 2, 5 and 6) and a siRNA against GRP94 (lanes 3, 4, 7 and 8) and incubated for 48 hours. The siRNA-treated cells were mock-infected (lanes 1-4) or infected with HCV (JFH 5a-Rluc) (lanes 5-8) and incubated for 24 hours. After infection, the cells were mock-treated (lanes 1, 3, 5 and 7) or treated with TRAIL (lanes 2, 4, 6 and 8) for 18 hours. These cells were used to monitor protein levels (upper panel) and virus infection (lower panel). The levels of PARP, GRP94 and actin were monitored by Western-blot analysis. The HCV infectivity levels were assessed by measuring luciferase activities. Experiments were performed six times with triplicate samples each, and mean and standard deviation values of the experiments are shown as columns and lines, respectively.

[6] = tested on: HCV strain JFH 5a-Rluc; experiment: HCV infectivity assessed by luciferase activity of JFH 5a-Rluc in Huh-7 cells; type: cell-based, hepatitis C virus; conditions: siRNA 48 hours before infection, TRAIL 18 hours after 24 hours infection
Protocol: as §1
To confirm that the anti-apoptotic activity of E2 is induced by GRP94 and NF-κB-related gene products in HCV-infected cells, the levels of GRP94, XIAP, TRAF2, FLIP and Bcl-xL were monitored using a HCV-infection system. The infectious JFH1 strain of HCV (Wakita T, Pietschmann T, Kato T, Date T, Miyamoto M, Zhao Z, Murthy K, et al. Production of infectious hepatitis C virus in tissue culture from a cloned viral genome. Nat Med 2005; 11:791-796) and a JFH1 derivative known as JFH5a-Rluc with a reporter gene (Renilla luciferase) in the NS5A of HCV (FIG. 6A) that is suitable for quantification of HCV infection (Kim C S, Jung J H, Wakita T, Yoon S K, Jang S K. Monitoring the Antiviral Effect of Alpha Interferon on Individual Cells. J. Virol. 2007; 81:8814-8820) were used. […]
Huh-7 cells were transfected with a control siRNA (lanes 1, 2, 5 and 6) and a siRNA against GRP94 (lanes 3, 4, 7 and 8) and incubated for 48 hours. […] The levels of PARP, GRP94 and actin were monitored by Western-blot analysis. The HCV infectivity levels were assessed by measuring luciferase activities. […]

T1 sequence (O15111 whole entry): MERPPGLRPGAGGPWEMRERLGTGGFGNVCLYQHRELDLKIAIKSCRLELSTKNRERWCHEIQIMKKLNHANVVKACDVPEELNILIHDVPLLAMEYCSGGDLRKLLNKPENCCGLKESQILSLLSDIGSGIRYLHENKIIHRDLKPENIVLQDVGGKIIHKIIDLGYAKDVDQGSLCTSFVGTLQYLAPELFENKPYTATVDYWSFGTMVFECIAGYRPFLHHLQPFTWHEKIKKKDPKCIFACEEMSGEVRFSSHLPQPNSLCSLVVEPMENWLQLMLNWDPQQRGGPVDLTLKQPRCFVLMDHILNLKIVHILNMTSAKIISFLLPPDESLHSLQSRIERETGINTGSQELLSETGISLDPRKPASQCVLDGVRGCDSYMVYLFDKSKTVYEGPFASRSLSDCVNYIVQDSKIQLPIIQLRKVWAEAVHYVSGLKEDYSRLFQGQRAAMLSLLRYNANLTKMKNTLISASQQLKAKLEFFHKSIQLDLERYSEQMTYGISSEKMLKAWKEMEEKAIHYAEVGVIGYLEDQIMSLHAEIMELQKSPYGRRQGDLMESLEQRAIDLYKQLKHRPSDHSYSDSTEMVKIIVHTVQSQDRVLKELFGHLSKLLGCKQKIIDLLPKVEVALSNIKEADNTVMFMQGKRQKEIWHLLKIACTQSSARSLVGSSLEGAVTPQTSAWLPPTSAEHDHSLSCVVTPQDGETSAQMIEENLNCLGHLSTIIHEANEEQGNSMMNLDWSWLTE
T1 sequence (O14920 whole entry): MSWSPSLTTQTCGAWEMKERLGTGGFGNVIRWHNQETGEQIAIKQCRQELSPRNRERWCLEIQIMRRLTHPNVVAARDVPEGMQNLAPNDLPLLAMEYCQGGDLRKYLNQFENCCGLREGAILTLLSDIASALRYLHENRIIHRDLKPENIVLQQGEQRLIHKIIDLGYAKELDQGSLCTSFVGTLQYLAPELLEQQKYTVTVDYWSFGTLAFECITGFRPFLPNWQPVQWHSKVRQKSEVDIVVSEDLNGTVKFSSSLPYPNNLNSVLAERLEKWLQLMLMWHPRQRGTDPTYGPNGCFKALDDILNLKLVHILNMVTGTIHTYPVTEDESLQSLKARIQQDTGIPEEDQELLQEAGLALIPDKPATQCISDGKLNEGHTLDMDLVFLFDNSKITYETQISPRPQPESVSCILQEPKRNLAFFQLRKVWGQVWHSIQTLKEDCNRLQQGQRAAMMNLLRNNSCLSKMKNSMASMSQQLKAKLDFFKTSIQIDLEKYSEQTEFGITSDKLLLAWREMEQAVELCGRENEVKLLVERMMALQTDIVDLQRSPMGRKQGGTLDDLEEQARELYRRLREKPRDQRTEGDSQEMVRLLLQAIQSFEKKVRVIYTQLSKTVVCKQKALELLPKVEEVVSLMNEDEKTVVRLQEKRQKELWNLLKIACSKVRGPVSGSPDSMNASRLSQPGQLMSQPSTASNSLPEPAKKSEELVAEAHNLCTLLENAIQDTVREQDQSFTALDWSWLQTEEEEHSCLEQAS
T1 sequence (Q9Y6K9 whole entry partner): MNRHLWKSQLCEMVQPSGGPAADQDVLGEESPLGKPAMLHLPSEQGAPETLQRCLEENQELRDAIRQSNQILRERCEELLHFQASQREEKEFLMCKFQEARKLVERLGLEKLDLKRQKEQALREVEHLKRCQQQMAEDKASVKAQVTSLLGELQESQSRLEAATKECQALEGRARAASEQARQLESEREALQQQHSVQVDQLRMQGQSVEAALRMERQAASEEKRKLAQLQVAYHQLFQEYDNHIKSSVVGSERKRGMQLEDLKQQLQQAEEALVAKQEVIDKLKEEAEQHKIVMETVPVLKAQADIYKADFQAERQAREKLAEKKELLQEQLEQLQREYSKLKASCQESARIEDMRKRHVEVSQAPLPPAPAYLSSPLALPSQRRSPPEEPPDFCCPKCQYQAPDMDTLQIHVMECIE

Cc1ccc(S(=O)(=O)/C=C/C#N)cc1 [BAY11-7082]
levels of GRP94 protein [1]: reduced | levels of XIAP, TRAF2, survivin, and IKKα/β ([1]; GRP94-expressing and control cells): markedly reduced

tumor necrosis factor (TNF)-α [TNF-α]
time after TNF-α treatment at which residual IκBα proteins were not detected ([2]; FK-E2(UAA)-containing Huh-7 cells): ≤ 5 min | delay of degradation of IκBα after treatment with TNF-α ([2]; Huh-7 cells containing replicon FK-E1(UAA)): up to 10 minutes | time after TNF-α treatment at which IκBα proteins were not detected ([2]; control Huh-7 cells): ≤ 5 min | increase in NF-κB reporter activity [3]: about 10 fold

B1: tumor necrosis-related apoptosis-inducing ligand (protein, UniProt P50591 1-281, looked up)
Tumor necrosis factor ligand …: MAMMEVQGGPSLGQTCVLIVIFTVLLQSLCVAVTYVYFTNELKQMQDKYSKSGIACFLKEDDSYWDPNDEESMNSPCWQVKWQLRQLVRKMILRTSEETISTVQEKQQNISPLVRERGPQRVAAHITGTRGRSNTLSSPNSKNEKALGRKINSWESSRSGHSFLSNLHLRNGELVIHEKGFYYIYSQTYFRFQEEIKENTKNDKQMVQYIYKYTSYPDPILLMKSARNSCWSKDAEYGLYSIYQGGIFELKENDRIFVSVTNEHLIDMDHEASFFGAFLVG
cleavage of PARP ([4]; GRP94-overexpressing and HCV-E2-expressing cells): blocked | cleavage of PARP ([4]; control cells, with control siRNA or GRP94 siRNA): observed | levels of PARP cleavage ([5]; HCV-infected Huh-7 cells): almost no reductions | cleavage of PARP ([5]; mock-infected Huh-7 cells): observed | reduction of infectivity of HCV [6]: about 20%
